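Each compound was tested at five concentrations against cells in 96-well plates for 48 hours. At the GI50, growth is halved.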 Calls of active or inactive are those of the source. Cut-off read from the data, not from the text of the source: active = GI50 up to about 1.1 µM and inactive = higher.

Results on 3 molecules are retold here after ChEMBL document CHEMBL1201862, “PubChem BioAssay data set” (2004).

Holding throughout (assay): NCI anticancer screen, dose series, 48 h
Assay [1] has as its system UACC-257.
Assay [2] has as its system A498.
The subject of assay [3] is DU-145.
The subject of assay [4] is T47D.
Assay [5] deals with NCI-H23.
Assay [6] concerns ACHN.
The test system of assay [7] is PC-3.
Assay [8] concerns RPMI-8226.
Assay [9] relates to OVCAR-4.
Assay [10] deals with NCI-H226.
Assay [11] has as its system OVCAR-3.
Assay [12] relates to SR.
The test system of assay [13] is OVCAR-5.
In assay [14] the test system is HOP-92.
The subject of assay [15] is CCRF-CEM.
For assay [16], the system named is MDA-MB-435.
The subject of assay [17] is NCI/ADR-RES.
Assay [18] relates to UACC-62.
Assay [19] deals with SK-MEL-5.
The test system of assay [20] is A549.

Turning to `O=C1c2c(F)c(F)c(F)c(F)c2SC2=NCCN12`, the GI50 is 8.57 µM (inactive) in [1]; 18.4 µM (inactive) in [2]; 17.3 µM (inactive) in [3]; 12.5 µM (inactive) in [4]; 5.42 µM (inactive) in assay [5]; 8.41 µM (inactive) in [6]. Moreover, the GI50 in assay [7] was 13.6 µM (inactive); in [8] it was 4 µM (inactive); in assay [9], 3.12 µM (inactive); in assay [10] it was 16.2 µM (inactive); in assay [11], 4.91 µM (inactive); in assay [12], 1.15 µM (inactive). In addition, the GI50 in [13] was 15.4 µM (inactive); in assay [14], 3.78 µM (inactive); in assay [15], 2.39 µM (inactive); in assay [16] it was 2.85 µM (inactive); in assay [17], 10.4 µM (inactive); in [18], 5.04 µM (inactive). Also, the GI50 in [19] is 14.8 µM (inactive); in [20], 14.7 µM (inactive).
For the molecule `CC1C(OS(=O)(=O)c2ccc3nc(S)sc3c2)CC2C3(C)CCC2(C(C)C(=O)O)C(O)C13` (stereo not given), the GI50 is 75.7 µM (inactive) in assay [1]; 54.7 µM (inactive) in assay [2]; 15.7 µM (inactive) in assay [3]; 21.2 µM (inactive) in [4]; 17.9 µM (inactive) in assay [5]; 15.9 µM (inactive) in assay [6]. Also, the GI50 in [7] was 27.4 µM (inactive); in assay [8], 11.5 µM (inactive); in assay [9] it was 18.6 µM (inactive); in [10] it was 19.8 µM (inactive); in [11], 14.5 µM (inactive); in assay [12] it was 11.9 µM (inactive). For the same molecule, the GI50 is 25.5 µM (inactive) in [13]; 26.6 µM (inactive) in assay [14]; 3.85 µM (inactive) in assay [15]; 17.2 µM (inactive) in assay [16]; 33 µM (inactive) in assay [17]; 21.9 µM (inactive) in assay [18]. For the same molecule, the GI50 in [19] is 14.8 µM (inactive); in assay [20], 21.7 µM (inactive).
Take `CC(=O)O[C@H]1C(=O)[C@@]2(C)[C@H]([C@H](OC(=O)c3cccc(C(F)(F)F)c3)[C@]3(O)C[C@H](OC(=O)[C@H](O)[C@@H](NC(=O)c4ccccc4)c4ccccc4)C(C)=C1C3(C)C)[C@]1(OC(C)=O)CO[C@@H]1C[C@@H]2O`: the GI50 in [1] was 0.108 µM (active); in assay [2] it was 0.131 µM (active); in [3] it was 0.00857 µM (active); in [4], 0.00455 µM (active); in [5] it was 0.0115 µM (active); in [6], 0.377 µM (active). Also, the GI50 in assay [7] is < 0.0025 µM (active); in [8] it was < 0.0025 µM (active); in assay [9], 0.336 µM (active); in assay [10], 0.00946 µM (active); in [11] it was < 0.0025 µM (active); in assay [12] it was < 0.0025 µM (active). Moreover, the GI50 in [13] was 0.00475 µM (active); in assay [14] it was 0.52 µM (active); in [15], < 0.0025 µM (active); in assay [16], < 0.0025 µM (active); in assay [17], 1.4 µM (inactive); in assay [18], 0.00526 µM (active). Moreover, the GI50 in [19] was < 0.0025 µM (active); in assay [20], 0.00261 µM (active).
